From article PMC3667671 (Clinical pharmacology and therapeutics, 2012)
Where “and” joins values, the source holds several entries; their conditions need not be identical. Equal entries are not always repeated. Where two headings read alike, the source gives them in different places. Values belong to the compound of their own block, whether it stands above or below them.

Experiments:
[1] = test system: serum cholesterol; conditions: human, in vivo; cited from earlier work
[2] = target: ABCC2 (Homo sapiens, UniProt Q92887); assay: Uptake of estradiol-17β-glucuronide into ABCC2-containing inside-out vesicles; type: biochemical
Chain of ABCC2 (Q92887 whole entry): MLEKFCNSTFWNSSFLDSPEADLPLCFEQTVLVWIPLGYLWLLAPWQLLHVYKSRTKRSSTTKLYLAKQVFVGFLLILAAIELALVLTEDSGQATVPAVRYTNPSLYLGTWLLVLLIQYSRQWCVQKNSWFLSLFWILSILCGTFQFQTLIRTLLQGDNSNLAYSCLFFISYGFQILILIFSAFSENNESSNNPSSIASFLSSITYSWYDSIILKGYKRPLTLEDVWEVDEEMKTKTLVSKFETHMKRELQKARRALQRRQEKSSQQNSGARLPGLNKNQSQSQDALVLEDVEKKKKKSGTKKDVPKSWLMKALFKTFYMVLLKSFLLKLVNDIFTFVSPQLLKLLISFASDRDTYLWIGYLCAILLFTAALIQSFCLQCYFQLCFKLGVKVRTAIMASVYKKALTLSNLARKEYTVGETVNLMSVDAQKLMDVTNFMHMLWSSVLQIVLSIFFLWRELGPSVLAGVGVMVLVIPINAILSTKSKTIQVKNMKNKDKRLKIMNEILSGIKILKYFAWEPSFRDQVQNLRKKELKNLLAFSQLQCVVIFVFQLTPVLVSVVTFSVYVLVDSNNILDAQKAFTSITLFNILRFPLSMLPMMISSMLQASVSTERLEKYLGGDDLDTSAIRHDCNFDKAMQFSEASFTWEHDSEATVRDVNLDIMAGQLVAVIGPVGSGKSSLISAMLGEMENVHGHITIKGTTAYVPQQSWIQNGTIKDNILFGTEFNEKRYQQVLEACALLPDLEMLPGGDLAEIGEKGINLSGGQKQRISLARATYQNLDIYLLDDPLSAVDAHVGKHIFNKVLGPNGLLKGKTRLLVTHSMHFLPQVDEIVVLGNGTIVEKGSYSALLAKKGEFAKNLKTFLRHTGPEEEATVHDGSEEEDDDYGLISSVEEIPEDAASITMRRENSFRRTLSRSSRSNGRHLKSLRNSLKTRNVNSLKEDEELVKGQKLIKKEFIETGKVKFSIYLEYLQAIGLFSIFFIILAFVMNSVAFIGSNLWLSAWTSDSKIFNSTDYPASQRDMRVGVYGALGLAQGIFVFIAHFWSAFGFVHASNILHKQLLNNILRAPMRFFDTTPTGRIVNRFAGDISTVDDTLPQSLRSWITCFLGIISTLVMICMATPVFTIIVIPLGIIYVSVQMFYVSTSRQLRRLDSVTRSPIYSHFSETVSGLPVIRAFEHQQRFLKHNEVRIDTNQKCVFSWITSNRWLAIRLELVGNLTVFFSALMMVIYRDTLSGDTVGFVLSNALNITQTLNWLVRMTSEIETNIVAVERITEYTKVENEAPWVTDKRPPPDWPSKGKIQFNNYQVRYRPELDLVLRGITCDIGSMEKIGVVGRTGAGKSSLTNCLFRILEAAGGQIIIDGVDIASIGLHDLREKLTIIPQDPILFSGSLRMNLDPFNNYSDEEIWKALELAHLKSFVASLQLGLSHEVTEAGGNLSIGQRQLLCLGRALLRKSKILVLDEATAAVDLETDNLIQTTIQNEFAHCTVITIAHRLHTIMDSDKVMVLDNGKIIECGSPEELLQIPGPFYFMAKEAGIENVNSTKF

[3] = type: in vivo, human
[4] = rapidly absorbed from the upper intestine; cited from earlier work
[5] = target: ABCB1 (Homo sapiens, UniProt P08183); assay: Calcein AM accumulation assay in ABCB1-transfected MDCKII cells; type: cell-based
Chain of ABCB1 (P08183 whole entry): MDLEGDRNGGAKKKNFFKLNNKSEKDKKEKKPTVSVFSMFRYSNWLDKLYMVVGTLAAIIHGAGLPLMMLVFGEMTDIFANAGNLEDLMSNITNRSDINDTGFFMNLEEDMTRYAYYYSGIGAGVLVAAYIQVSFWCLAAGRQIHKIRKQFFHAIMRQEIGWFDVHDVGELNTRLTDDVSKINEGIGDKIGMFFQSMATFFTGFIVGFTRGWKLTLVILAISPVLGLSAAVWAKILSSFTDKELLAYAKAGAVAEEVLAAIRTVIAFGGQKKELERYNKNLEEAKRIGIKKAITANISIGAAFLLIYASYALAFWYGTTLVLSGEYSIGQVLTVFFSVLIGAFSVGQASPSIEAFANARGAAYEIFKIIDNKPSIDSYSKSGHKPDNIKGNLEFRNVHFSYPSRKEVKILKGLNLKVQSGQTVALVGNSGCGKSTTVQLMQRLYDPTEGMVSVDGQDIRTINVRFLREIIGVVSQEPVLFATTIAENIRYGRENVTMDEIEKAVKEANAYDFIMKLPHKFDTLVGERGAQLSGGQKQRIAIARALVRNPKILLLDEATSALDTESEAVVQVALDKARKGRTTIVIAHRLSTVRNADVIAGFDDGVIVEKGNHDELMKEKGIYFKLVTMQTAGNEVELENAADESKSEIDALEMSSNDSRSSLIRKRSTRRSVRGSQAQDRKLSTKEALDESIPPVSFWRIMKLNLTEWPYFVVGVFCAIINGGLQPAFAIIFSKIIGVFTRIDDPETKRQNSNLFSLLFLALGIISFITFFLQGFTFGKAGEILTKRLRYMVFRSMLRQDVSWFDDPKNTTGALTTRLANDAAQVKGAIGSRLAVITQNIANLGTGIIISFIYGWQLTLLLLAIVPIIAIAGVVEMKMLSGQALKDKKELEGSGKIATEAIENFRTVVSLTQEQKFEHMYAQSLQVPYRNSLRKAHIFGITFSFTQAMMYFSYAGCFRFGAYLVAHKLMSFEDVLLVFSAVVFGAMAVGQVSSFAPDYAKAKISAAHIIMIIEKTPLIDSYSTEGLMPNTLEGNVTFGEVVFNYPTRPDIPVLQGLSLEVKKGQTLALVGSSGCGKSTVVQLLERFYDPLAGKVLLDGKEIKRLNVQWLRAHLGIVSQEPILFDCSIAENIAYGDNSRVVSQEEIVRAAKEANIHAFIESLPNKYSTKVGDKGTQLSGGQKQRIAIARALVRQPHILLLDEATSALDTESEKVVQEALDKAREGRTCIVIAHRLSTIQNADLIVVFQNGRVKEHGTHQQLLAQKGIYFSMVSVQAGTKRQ

[6] = Estimated luminal concentration of efavirenz after oral administration; set-up: species or system human; conditions: after oral administration of 400 mg, dose/250 mL
[7] = target: T1, OATP1B1 (Homo sapiens, UniProt Q9Y6L6); type: cell-based; conditions: OATP1B1-transfected HEK293 cells, efavirenz 1–1,000 μmol/l
T1 sequence (Q9Y6L6 1-691): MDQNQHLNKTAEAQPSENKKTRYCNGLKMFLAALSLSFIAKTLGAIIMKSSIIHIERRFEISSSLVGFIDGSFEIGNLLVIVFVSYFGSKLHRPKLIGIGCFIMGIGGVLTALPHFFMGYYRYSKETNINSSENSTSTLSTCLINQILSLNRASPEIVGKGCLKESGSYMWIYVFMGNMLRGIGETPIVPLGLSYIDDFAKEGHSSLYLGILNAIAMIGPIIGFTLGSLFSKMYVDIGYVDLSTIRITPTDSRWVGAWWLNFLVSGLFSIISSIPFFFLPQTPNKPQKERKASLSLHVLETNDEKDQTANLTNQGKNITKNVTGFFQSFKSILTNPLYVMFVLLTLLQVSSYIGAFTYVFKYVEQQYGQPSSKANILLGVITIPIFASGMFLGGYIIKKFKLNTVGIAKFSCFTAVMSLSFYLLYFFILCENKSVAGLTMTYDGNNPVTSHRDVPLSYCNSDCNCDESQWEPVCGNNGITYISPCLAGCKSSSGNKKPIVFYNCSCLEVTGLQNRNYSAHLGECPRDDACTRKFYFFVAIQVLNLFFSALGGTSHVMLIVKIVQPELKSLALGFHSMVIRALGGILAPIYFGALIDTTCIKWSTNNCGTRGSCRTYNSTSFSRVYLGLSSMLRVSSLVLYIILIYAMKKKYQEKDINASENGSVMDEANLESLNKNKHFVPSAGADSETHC

[8] = test system: serum sterols; assay: Serum sterol concentrations; type: in vivo, human
[9] = type: in vivo, human; conditions: for AUC(0-t) / Cmax / AUC0–6 h / AUC0–24 h: serum; for AUC(0-t) / Cmax / CLR (renal clearance) / AUC0–6 h / AUC0–24 h: mean ± SD
[10] = 400 mg efavirenz single dose, second value of the pair (taken as with ezetimibe)
[11] = chronic administration of 10 mg ezetimibe, 12 healthy subjects
[12] = ezetimibe + efavirenz multiple dose vs ezetimibe alone
[13] = ezetimibe + efavirenz single dose vs ezetimibe alone
[14] = steady state 10 mg ezetimibe + 400 mg efavirenz multiple dose
[15] = steady state 10 mg ezetimibe + 400 mg efavirenz single dose
[16] = steady state, 10 mg ezetimibe alone

IC50 [2]: 60.3 µM
cumulative renal excretion ([3]; 400 mg efavirenz single dose, first value of the pair (taken as alone)): 83.4 ± 26.9 µg
cumulative renal excretion [3, 10]: 88.4 ± 18.8 µg
renal clearance [3, 10]: 0.06 ± 0.03 mL/min
AUC(0-inf) ([3]; human, serum, oral, 400 mg): 27000 ± 12200 ng·h/mL
CL renal ([3]; human, urine and plasma, oral, 400 mg): 0.06 ± 0.03 mL/min
concentration inhibiting ABCB1 activity to the same extent as PSC833 (10 μmol/l) [5]: 316 µM
estimated luminal concentration [6]: ~ 5 mmol/l and 5 mmol/l
influence on OATP1B1-mediated uptake of bromosulfophthalein [7]: no influence
SMILES: O=C1Nc2ccc(Cl)cc2[C@@](C#CC2CC2)(C(F)(F)F)O1 [Efavirenz, efavirenz]
HIV-infected patients with increased serum cholesterol levels [1]: ~50%
Tmax [4]: 2 to 3 h

AUC0–6 h Ratio (90% CI) [9, 12]: 1.052 (0.880, 1.256)
AUC0–24 h Ratio (90% CI) [9, 12]: 0.975 (0.850, 1.118)
Cmax Ratio (90% CI) [9, 12]: 0.951 (0.730, 1.240)
AUC0–6 h Ratio (90% CI) [9, 13]: 1.346 (1.201, 1.508)
AUC0–24 h Ratio (90% CI) [9, 13]: 1.146 (1.034, 1.270)
Cmax Ratio (90% CI) [9, 13]: 1.194 (1.031, 1.382)
AUC(0-t) ([9]; human, oral, 10 mg, AUC0–6 h, steady state, 10 mg ezetimibe alone): 13.6 ± 5.5 ng·h/mL
AUC(0-t) ([9]; human, oral, 10 mg, AUC0–24 h, steady state, 10 mg ezetimibe alone, 12 healthy subjects): 51.9 ± 21.7 ng·h/mL
Cmax ([9]; human, oral, 10 mg, Cmax, steady state, 10 mg ezetimibe alone): 4.82 ± 2.74 ng/mL
higher AUC0–6 h ([9]; with single-dose efavirenz vs ezetimibe alone, P = 0.005): 1.4 fold
higher maximum plasma concentration (Cmax) ([9]; with single-dose efavirenz vs ezetimibe alone, P = 0.049): 1.2 fold
SMILES: O=C1[C@H](CC[C@H](O)c2ccc(F)cc2)[C@@H](c2ccc(O)cc2)N1c1ccc(F)cc1 [Ezetimibe, ezetimibe]
lathosterol/cholesterol ratio (marker for endogenous cholesterol synthesis) ([8]; after treatment with ezetimibe): significantly increased
reduction of serum concentration of campesterol [8, 11]: ~ 40%
reduction of serum concentration of sitosterol [8, 11]: ~ 40%
reduction of total serum cholesterol [8, 11]: 10–15%

CLR (renal clearance) ([9]; 10 mg ezetimibe + 400 mg efavirenz multiple dose): 21.7 ± 5.91 mL/min
CLR (renal clearance) ([9]; 10 mg ezetimibe + 400 mg efavirenz single dose): 23.3 ± 7.61 mL/min
CLR (renal clearance) ([9]; 10 mg ezetimibe alone, steady state): 24.7 ± 8.77 mL/min
decrease of exposure ([9]; acute and chronic comedication with efavirenz): 12–30%
AUC0–6 h Ratio (90% CI) [9, 12]: 0.691 (0.592, 0.806)
AUC0–24 h Ratio (90% CI) [9, 12]: 0.700 (0.608, 0.806)
Cmax Ratio (90% CI) [9, 12]: 0.606 (0.469, 0.783)
AUC0–6 h Ratio (90% CI) [9, 13]: 0.872 (0.774, 0.982)
AUC0–24 h Ratio (90% CI) [9, 13]: 0.885 (0.809, 0.968)
Cmax Ratio (90% CI) [9, 13]: 0.776 (0.625, 0.963)
reduction of urinary excretion ([9]; multiple doses of efavirenz, unchanged renal clearance, P = 0.003): 35%
diminished serum AUC ([9]; pretreatment with multiple doses of efavirenz, P = 0.005): ~30%
diminished serum Cmax ([9]; pretreatment with multiple doses of efavirenz, P = 0.012): about 43%
AUC0–6 h [9, 14]: 141 ± 58 ng·h/mL
AUC0–24 h [9, 14]: 325 ± 152 ng·h/mL
Cmax [9, 14]: 45.3 ± 14.6 ng/mL
AUC0–6 h [9, 15]: 182 ± 87 ng·h/mL
AUC0–24 h [9, 15]: 411 ± 195 ng·h/mL
Cmax [9, 15]: 60.9 ± 29.5 ng/mL
AUC0–24 h ([9]; steady state, 10 mg ezetimibe alone, 12 healthy subjects): 466 ± 223 ng·h/mL
AUC0–6 h [9, 16]: 205 ± 90 ng·h/mL
Cmax [9, 16]: 78.9 ± 43.1 ng/mL
SMILES: O=C(O)[C@H]1O[C@@H](Oc2ccc([C@@H]3[C@@H](CC[C@H](O)c4ccc(F)cc4)C(=O)N3c3ccc(F)cc3)cc2)[C@H](O)[C@@H](O)[C@@H]1O [Ezetimibe-glucuronide, ezetimibe-glucuronide]
